Read-outs that look alike come from different tables or passages of the source.
Columns and labels:
HCV replicon cells = assay: HCV replicon FRET / luciferase assay; assay type: cell-based; details: Hepatitis C virus
From the text: FRET Assay Preparation. To perform the HCV FRET screening assay, 96-well cell culture plates were used. The FRET peptide (Anaspec, Inc.) (Taliani et al., Anal. Biochem. 1996, 240, 60-67) contains a fluorescence donor, EDANS, near one end of the peptide and an acceptor, DABCYL, near the other end. The fluorescence of the peptide is quenched by […] resonance energy transfer (RET) between the donor and the acceptor, but as the NS3 protease cleaves the peptide the products are released from RET quenching and the fluorescence of the donor becomes apparent. The assay reagent was made as follows: 5× cell Luciferase cell culture lysis reagent from Promega (#E153A) diluted to 1× with dH2O, NaCl added to 150 mM final, the FRET peptide diluted to 20 μM final from a 2 mM stock.
To prepare plates, HCV replicon cells, with or without a Renilla luciferase reporter gene, were trypsinized and placed into each well of a 96-well plate with titrated test compounds added in columns 3 through 12; columns 1 and 2 contained a control compound (HCV protease inhibitor), and the bottom row contained cells without compound. The plates were then placed in a CO2 incubator at 37° C.
Assays. Subsequent to addition of the test compounds described above (FRET Assay Preparation), at various times the plate was removed and Alamar blue solution (Trek Diagnostics, #00-100) was added per well as a measure of cellular toxicity. After reading in a Cytoflour 4000 instrument (PE Biosystems), plates were rinsed with PBS and then used for FRET assay by the addition of 30 ul of the FRET peptide assay reagent described above (FRET Assay Preparation) per well. The plate was then placed into the Cytoflour 4000 instrument which had been set to 340 excite/490 emission, automatic mode for 20 cycles and the plate read in a kinetic mode. Typically, the signal to noise using an endpoint analysis after the reads was at least three-fold. Alternatively, after Alamar blue reading, plates were rinsed with PBS, 50 ul of DMEM (high glucose) without phenol red was added and plates were then used for luciferase assay using the Promega Dual-Glo Luciferase Assay System.
Compound analysis was determined by quantification of the relative HCV replicon inhibition and the relative cytotoxicity values. To calculate cytoxicity values, the average Alamar Blue fluorescence signals from the control wells were set as 100% non-toxic. The individual signals in each of the compound test wells were then divided by the average control signal and multiplied by 100% to determine […]. To calculate the HCV replicon inhibition values, an average background value was obtained from the two wells containing the highest amount of HCV protease inhibitor at the end of the assay period. These numbers were similar to those obtained from naïve Huh-7 cells.
The background numbers were then subtracted from the average signal obtained from the control wells and this number was used as 100% activity. The individual signals in each of the compound test wells were then divided by the averaged control values after background subtraction and multiplied by 100% to determine percent activity. EC50 values for a protease inhibitor titration were calculated as the concentration which caused a 50% reduction in FRET or luciferase activity. The two numbers generated for the compound plate, percent cytoxicity and percent activity were used to determine compounds of interest for further analysis.

HCV NS5B = molecular target: T1, HCV NS5B (Hepatitis C virus genotype 1b, UniProt Q9WMX2); assay: HCV NS5B RdRp enzyme assay (standard / modified); assay type: biochemical
T1 construct: The protein was expressed with an 18 amino acid C-terminal truncation to enhance the solubility; made in house; host or cells: E. coli BL21 (DE3)
T1 sequence (Q9WMX2 2420-2992): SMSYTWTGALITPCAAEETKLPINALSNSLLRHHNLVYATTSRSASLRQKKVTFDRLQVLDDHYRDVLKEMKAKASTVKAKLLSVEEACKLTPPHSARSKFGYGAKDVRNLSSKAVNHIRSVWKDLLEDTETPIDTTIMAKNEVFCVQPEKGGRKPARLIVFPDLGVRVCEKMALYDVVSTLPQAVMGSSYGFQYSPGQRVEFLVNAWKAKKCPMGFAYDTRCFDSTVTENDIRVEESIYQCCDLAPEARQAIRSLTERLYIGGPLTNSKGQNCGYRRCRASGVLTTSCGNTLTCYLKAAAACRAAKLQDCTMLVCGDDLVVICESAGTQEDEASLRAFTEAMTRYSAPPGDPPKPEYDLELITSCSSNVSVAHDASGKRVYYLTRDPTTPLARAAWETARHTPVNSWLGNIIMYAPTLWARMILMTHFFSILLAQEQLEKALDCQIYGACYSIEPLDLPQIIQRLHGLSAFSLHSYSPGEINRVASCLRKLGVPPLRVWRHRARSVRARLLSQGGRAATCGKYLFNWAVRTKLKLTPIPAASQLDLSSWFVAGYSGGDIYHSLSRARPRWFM
Experimental: HCV NS5B RdRp cloning, expression, and purification. The cDNA encoding the NS5B protein of HCV, genotype 1b, was cloned into the pET21a expression vector. The protein was expressed with an 18 amino acid C-terminal truncation to enhance the solubility. The E. coli competent cell line BL21 (DE3) was used for expression of the protein. Cultures were grown at 37° C. for ˜4 hours until the cultures reached an optical density of 2.0 at 600 nm. The cultures were cooled to 20° C. and induced with 1 mM IPTG. Fresh ampicillin was added to a final concentration of 50 μg/ml and the cells were grown overnight at 20° C.
Cell pellets (3 L) were lysed for purification to yield 15-24 mgs of purified NS5B. The lysis buffer consisted of 20 mM Tris-HCl, pH 7.4, 500 mM NaCl, 0.5% triton X-100, 1 mM DTT, 1 mM EDTA, 20% glycerol, 0.5 mg/ml lysozyme, 10 mM MgCl2, 15 ug/ml deoxyribonuclease I, and Complete TM protease inhibitor tablets (Roche). After addition of the lysis buffer, frozen cell pellets were resuspended using a tissue homogenizer. To reduce the viscosity of the sample, aliquots of the lysate were sonicated on ice using a microtip attached to a Branson sonicator. The sonicated lysate was centrifuged at 100,000×g for 1 hr at 4° C. and filtered through a 0.2 μm filter unit (Corning).
The protein was purified using three sequential chromatography steps: Heparin sepharose CL-6B, polyU sepharose 4B, and Hitrap SP sepharose (Pharmacia). The chromatography buffers were identical to the lysis buffer but contained no lysozyme, deoxyribonuclease I, MgCl2 or protease inhibitor and the NaCl concentration of the buffer was adjusted according to the requirements for charging the protein onto the column. Each column was eluted with a NaCl gradient which varied in length from 5-50 column volumes depending on the column type. After the final chromatography step, the resulting purity of the enzyme is >90% based on SDS-PAGE analysis. The enzyme was aliquoted and stored at −80° C.
Standard HCV NS5B RdRp enzyme assay. HCV RdRp genotype 1b assays were run in a final volume of 60 μl in 96 well plates (Costar 3912). The assay buffer is composed of 20 mM Hepes, pH 7.5, 2.5 mM KCl, 2.5 mM MgCl2, 1 mM DTT, 1.6 U RNAse inhibitor (Promega N2515), 0.1 mg/ml BSA (Promega R3961), and 2% glycerol. All compounds were serially diluted (3-fold) in DMSO and diluted further in water such that the final concentration of DMSO in the assay was 2%. HCV RdRp genotype 1b enzyme was used at a final concentration of 28 nM. A polyA template was used at 6 nM, and a biotinylated oligo-dT12 primer was used at 180 nM final concentration. Template was obtained commercially (Amersham 27-4110). Biotinylated primer was prepared by Sigma Genosys. 3H-UTP was used at 0.6 μCi (0.29 μM total UTP). Reactions were initiated by the addition of enzyme, incubated at 30° C. for 60 min, and stopped by adding 25 μl of 50 mM EDTA containing SPA beads (4 μg/μl, Amersham RPNQ 0007). Plates were read on a Packard Top Count NXT after >1 hr incubation at room temperature.
Modified HCV NS5B RdRp enzyme assay. A modified enzyme assay was performed essentially as described for the standard enzyme assay except for the following: The biotinylated oligo dT12 primer was precaptured on streptavidin-coated SPA beads by mixing primer and beads in assay buffer and incubating at room temperature for one hour. Unbound primer was removed after centrifugation. The primer-bound beads were resuspended in 20 mM Hepes buffer, pH 7.5 and used in the assay at final concentrations of 20 nM primer and 0.67 μg/μl beads. Order of addition in the assay: enzyme (14 nM) was added to diluted compound followed by the addition of a mixture of template (0.2 nM), 3H-UTP (0.6 μCi, 0.29 μM), and primer-bound beads, to initiate the reaction; concentrations given are final. Reactions were allowed to proceed for 4 hours at 30° C.
IC50 values for compounds were determined using seven different [I]. […]

Structure (SMILES) | EC50 (HCV replicon cells) | further results
COc1ccc2c(c1)C=C(c1c(C(=O)N3C[C@H]4CC[C@@H](C3)N4C)cnn1C)Cn1c-2c(C2CCCCC2)c2ccc(C(=O)NS(=O)(=O)N3CCOCC3)cc21 | 1 to 500 nM | IC50 (HCV NS5B): 1 to 500 nM
COc1ccc2c(c1)C=C(c1c(C(=O)N3C4CCC3CN(C)C4)c(C(F)(F)F)nn1C)Cn1c-2c(C2CCCCC2)c2ccc(C(=O)NS(=O)(=O)C(C)C)cc21 | 1 to 500 nM | IC50 (HCV NS5B): 1 to 500 nM
COc1ccc2c(c1)C=C(c1c(C(=O)N3C4CCC3CN(C)C4)cnn1C)Cn1c-2c(C2CCCCC2)c2ccc(C(=O)NS(=O)(=O)C3CCC3)cc21 | 1 to 500 nM | IC50 (HCV NS5B): 1 to 500 nM
COC[C@@H]1CN(C(=O)c2cnn(C)c2C2=Cc3cc(OC)ccc3-c3c(C4CCCCC4)c4ccc(C(=O)NS(=O)(=O)CC(C)C)cc4n3C2)CCO1 | – | EC50 (HCV replicon cells; HCV replicon cells, FRET or luciferase readout, read-out: EC50): 1 to 500 nM; IC50 (HCV NS5B; HCV RdRp genotype 1b enzyme, read-out: IC50): 1 to 500 nM
COc1ccc2c(c1)C=C(c1c(C(=O)N3C4CCC3CN(C)C4)c(C)nn1C(C)C)Cn1c-2c(C2CCCCC2)c2ccc(C(=O)NS(=O)(=O)C(C)C)cc21 | 1 to 500 nM | –
CCn1ncc(C(=O)N2CC3CCC(C2)N3C)c1C1=Cc2cc(OC)ccc2-c2c(C3CCCCC3)c3ccc(C(=O)NS(=O)(=O)C(C)C)cc3n2C1 | 1 to 500 nM | –
CCn1nc(C)c(C(=O)N2C3CCCC2COC3)c1C1=Cc2cc(OC)ccc2-c2c(C3CCCCC3)c3ccc(C(=O)NS(=O)(=O)C(C)C)cc3n2C1 | 1 to 500 nM | –
COc1ccc2c(c1)C=C(c1c(C(=O)N3C4CCCC3COC4)cnn1C(C)C)Cn1c-2c(C2CCCCC2)c2ccc(C(=O)NS(=O)(=O)C(C)C)cc21 | 1 to 500 nM | –
CCn1ncc(C(=O)N2C3CCC2CN(C)C3)c1C1=Cc2cc(OC)ccc2-c2c(C3CCCCC3)c3ccc(C(=O)NS(=O)(=O)C(C)C)cc3n2C1 | 1 to 500 nM | –
COc1ccc2c(c1)C=C(c1c(C(=O)N3C4CCC3CN(C)C4)ncn1C(C)C)Cn1c-2c(C2CCCCC2)c2ccc(C(=O)NS(=O)(=O)C(C)C)cc21 | 1 to 500 nM | –
COc1ccc2c(c1)C=C(c1c(C(=O)N3C4COCC3COC4)cnn1CC(F)(F)F)Cn1c-2c(C2CCCCC2)c2ccc(C(=O)NS(=O)(=O)C(C)C)cc21 | 1 to 500 nM | –
COc1ccc2c(c1)C=C(c1c(C(=O)N3C4CCC3CN(C)C4)nnn1C(C)C)Cn1c-2c(C2CCCCC2)c2ccc(C(=O)NS(=O)(=O)N(C)C)cc21 | 1 to 500 nM | –
CCn1nc(C)c(C(=O)N2C3CCC2CN(C)C3)c1C1=Cc2cc(OC)ccc2-c2c(C3CCCCC3)c3ccc(C(=O)NS(=O)(=O)C(C)C)cc3n2C1 | 1 to 500 nM | –
COc1ccc2c(c1)C=C(c1c(C(=O)N3C4CCC3CC4)cnn1C)Cn1c-2c(C2CCCCC2)c2ccc(C(=O)NS(=O)(=O)C(C)C)cc21 | 1 to 500 nM | –

From patent US8143243B2, “Compounds for the treatment of hepatitis C” (Bristol-Myers Squibb Company, priority 2007, dated 2012)
